Test results from patent US10995322B2, “Processes to prepare elongated 2-ketoacids and C5-C10 compounds therefrom via genetic modifications to microbial metabolic pathways” (priority 2016, dated 2021).

Key:
[1] = molecular target: Citrobacter freundii MGH 56 isopropylmalate synthase (Gene Accession No. KDF09799, SEQ ID NO: 1) variant 1409, H97A/S139G/N167G/P169A/G462D (Citrobacter freundii, UniProt A0A0D7LMP4, G462D/H97A/N167G/P169A/S139G); conditions: pH 7.5, 30° C.
[2] = molecular target: Enterobacter cloacae isopropylmalate synthase (Gene Accession No. WP_014830637, SEQ ID NO: 2) variant 1414, H97A/S139G/N167G/P169A/G462D (Enterobacter cloacae, UniProt A0A0H3CGL5, G462D/H97A/N167G/P169A/S139G); conditions: pH 7.5, 30° C.
Enterobacter cloacae isopropylmalate synthase (Gene Accession No. WP_014830637, SEQ ID NO: 2) variant 1414, H97A/S139G/N167G/P169A/G462D, sequence (A0A0H3CGL5 entry or part of it G462D/H97A/N167G/P169A/S139G): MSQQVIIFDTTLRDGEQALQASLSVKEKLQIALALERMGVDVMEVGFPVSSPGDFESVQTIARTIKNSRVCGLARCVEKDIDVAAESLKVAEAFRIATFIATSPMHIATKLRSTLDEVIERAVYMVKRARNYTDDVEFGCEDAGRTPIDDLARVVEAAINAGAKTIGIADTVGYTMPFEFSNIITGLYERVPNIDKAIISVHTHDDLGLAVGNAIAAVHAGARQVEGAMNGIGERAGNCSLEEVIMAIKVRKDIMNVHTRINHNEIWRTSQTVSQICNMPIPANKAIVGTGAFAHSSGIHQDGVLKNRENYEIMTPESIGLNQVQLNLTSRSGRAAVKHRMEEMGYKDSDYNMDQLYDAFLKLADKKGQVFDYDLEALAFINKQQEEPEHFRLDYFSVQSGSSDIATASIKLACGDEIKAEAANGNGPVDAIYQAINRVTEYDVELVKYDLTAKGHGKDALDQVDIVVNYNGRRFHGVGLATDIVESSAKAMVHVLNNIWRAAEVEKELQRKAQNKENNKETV

[3] = molecular target: Enterobacter cloacae isopropylmalate synthase (Gene Accession No. WP_014830637, SEQ ID NO: 2) variant 1457, M255L/R260A/N264Q/H97A/S139G/N167G/P169A/G462D (Enterobacter cloacae, UniProt A0A0H3CGL5, G462D/H97A/M255L/N167G/N264Q/P169A/R260A/S139G); conditions: pH 7.5, 30° C.
Enterobacter cloacae isopropylmalate synthase (Gene Accession No. WP_014830637, SEQ ID NO: 2) variant 1457, M255L/R260A/N264Q/H97A/S139G/N167G/P169A/G462D, sequence (A0A0H3CGL5 entry or part of it G462D/H97A/M255L/N167G/N264Q/P169A/R260A/S139G): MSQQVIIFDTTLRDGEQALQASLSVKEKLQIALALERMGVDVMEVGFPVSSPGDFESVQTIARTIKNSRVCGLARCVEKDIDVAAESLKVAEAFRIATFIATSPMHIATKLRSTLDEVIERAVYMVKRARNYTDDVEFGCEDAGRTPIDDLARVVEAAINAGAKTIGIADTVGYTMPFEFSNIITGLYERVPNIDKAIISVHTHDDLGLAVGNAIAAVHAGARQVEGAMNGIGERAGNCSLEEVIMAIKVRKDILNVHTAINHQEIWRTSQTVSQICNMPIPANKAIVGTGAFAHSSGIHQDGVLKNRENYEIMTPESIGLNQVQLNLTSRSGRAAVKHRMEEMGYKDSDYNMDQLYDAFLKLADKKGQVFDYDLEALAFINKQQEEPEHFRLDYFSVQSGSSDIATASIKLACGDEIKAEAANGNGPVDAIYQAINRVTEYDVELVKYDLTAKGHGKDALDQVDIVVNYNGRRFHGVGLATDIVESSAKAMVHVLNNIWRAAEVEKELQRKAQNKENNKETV

[4] = molecular target: Enterobacter cloacae isopropylmalate synthase (Gene Accession No. WP_014830637, SEQ ID NO: 2) variant 1460, D348E/D350E/M353L/Q355N/H97A/S139G/N167G/P169A/G462D (Enterobacter cloacae, UniProt A0A0H3CGL5, D348E/D350E/G462D/H97A/M353L/N167G/P169A/Q355N/S139G); conditions: pH 7.5, 30° C.
Enterobacter cloacae isopropylmalate synthase (Gene Accession No. WP_014830637, SEQ ID NO: 2) variant 1460, D348E/D350E/M353L/Q355N/H97A/S139G/N167G/P169A/G462D, sequence (A0A0H3CGL5 entry or part of it D348E/D350E/G462D/H97A/M353L/N167G/P169A/Q355N/S139G): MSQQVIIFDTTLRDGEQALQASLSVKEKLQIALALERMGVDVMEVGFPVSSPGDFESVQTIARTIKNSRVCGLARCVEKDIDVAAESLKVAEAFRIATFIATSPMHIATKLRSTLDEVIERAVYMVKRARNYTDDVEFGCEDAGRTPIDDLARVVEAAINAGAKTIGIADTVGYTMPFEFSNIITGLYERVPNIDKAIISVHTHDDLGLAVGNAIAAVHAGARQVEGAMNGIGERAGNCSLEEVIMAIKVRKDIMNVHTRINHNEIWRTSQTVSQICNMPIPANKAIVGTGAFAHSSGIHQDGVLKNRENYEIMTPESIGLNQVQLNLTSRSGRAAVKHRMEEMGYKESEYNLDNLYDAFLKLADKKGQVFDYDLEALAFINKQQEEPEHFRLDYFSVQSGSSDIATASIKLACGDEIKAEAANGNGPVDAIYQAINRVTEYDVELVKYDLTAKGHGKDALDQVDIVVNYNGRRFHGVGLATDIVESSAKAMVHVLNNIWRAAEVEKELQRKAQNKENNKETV

[5] = molecular target: Citrobacter freundii MGH 56 isopropylmalate synthase (Gene Accession No. KDF09799, SEQ ID NO: 1) variant 1467, G181A/A182G/G210A/A214S/H97A/S139G/N167G/P169A/G4 (Citrobacter freundii, UniProt A0A0D7LMP4, A182G/A214S/G181A/G210A/G462D/H97A/N167G/P169A/S139G); conditions: pH 7.5, 30° C.
Citrobacter freundii MGH 56 isopropylmalate synthase (Gene Accession No. KDF09799, SEQ ID NO: 1) variant 1467, G181A/A182G/G210A/A214S/H97A/S139G/N167G/P169A/G4, sequence (A0A0D7LMP4 entry or part of it A182G/A214S/G181A/G210A/G462D/H97A/N167G/P169A/S139G): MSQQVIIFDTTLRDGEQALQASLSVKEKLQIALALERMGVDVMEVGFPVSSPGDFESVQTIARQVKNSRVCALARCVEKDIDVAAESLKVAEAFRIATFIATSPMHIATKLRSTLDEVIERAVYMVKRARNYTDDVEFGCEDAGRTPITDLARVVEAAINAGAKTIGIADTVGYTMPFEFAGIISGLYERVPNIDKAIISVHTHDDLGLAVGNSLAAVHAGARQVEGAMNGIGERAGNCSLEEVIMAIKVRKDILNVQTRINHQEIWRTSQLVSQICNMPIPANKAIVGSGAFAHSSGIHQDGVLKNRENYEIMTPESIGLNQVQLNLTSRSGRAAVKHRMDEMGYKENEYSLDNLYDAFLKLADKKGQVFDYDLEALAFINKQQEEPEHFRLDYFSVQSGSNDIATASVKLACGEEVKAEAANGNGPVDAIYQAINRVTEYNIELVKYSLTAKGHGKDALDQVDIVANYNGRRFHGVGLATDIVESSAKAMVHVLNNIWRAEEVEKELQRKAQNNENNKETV

[6] = system: Citrobacter freundii MGH 56 isopropylmalate synthase (Gene Accession No. KDF09799, SEQ ID NO: 1) variant 1467, G181A/A182G/G210A/A214S/H97A/S139G/N167G/P169A/G4 …; conditions: 2-ketooctanoate
[7] = molecular target: Citrobacter freundii MGH 56 isopropylmalate synthase (Gene Accession No. KDF09799, SEQ ID NO: 1) variant 1466, G210A/A214S/H97A/S139G/N167G/P169A/G462D (Citrobacter freundii, UniProt A0A0D7LMP4, A214S/G210A/G462D/H97A/N167G/P169A/S139G); assay type: biochemical; conditions: acetyl-CoA 0-10 mM, 2-ketooctanoate 2 mM, pH 7.5, 30° C.
Citrobacter freundii MGH 56 isopropylmalate synthase (Gene Accession No. KDF09799, SEQ ID NO: 1) variant 1466, G210A/A214S/H97A/S139G/N167G/P169A/G462D, sequence (A0A0D7LMP4 entry or part of it A214S/G210A/G462D/H97A/N167G/P169A/S139G): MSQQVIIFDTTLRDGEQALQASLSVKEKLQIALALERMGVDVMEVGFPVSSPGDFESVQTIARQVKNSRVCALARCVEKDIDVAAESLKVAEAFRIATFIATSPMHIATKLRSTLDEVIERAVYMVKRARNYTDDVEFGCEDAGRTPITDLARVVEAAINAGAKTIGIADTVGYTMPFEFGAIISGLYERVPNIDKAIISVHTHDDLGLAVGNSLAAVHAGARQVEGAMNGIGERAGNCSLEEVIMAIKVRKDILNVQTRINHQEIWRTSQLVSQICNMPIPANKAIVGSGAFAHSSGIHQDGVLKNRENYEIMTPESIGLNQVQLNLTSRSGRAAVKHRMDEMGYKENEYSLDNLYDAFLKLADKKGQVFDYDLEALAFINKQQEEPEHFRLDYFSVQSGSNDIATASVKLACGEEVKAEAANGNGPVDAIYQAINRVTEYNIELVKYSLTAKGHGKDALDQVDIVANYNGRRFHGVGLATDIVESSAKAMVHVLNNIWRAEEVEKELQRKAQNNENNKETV
CCCCCCC(=O)C(=O)O = test: purified protein, by the assay type; conditions: pH 7.5; 30.0 °C
[8] = system: CC(=O)SCCNC(=O)CCNC(=O)[C@H](O)C(C)(C)COP(=O)(O)OP(=O)(O)OC[C@H]1O[C@@H](n2cnc3c(N)ncnc32)[C@H](O)[C@@H]1OP(=O)(O)O; test: purified protein, by the assay type; conditions: pH 7.5; 30.0 °C
[9] = substrate: CCCCCCC(=O)C(=O)O; test: Kinetic evaluation of isopropylmalate synthase construct 614 (DTNB/CoASH assay); assay type: biochemical, E. coli; conditions: other: 2-ketooctanoate 0-3.2 mM, acetyl-CoA 2 mM, pH 7.5, 30° C.
Procedure: (§1) Codons of 13 additional amino acids that included six histidine's were fused upstream of the codon of Met-1 of each IPMS gene sequence. Such a modification allowed expression of a His-tagged IPMS having 13 additional amino acids on the N-terminus. To the resulting modified gene, additional bases were added to introduce a NcoI and a SacI restriction site at the 5′- and 3′-end, respectively, for cloning purposes. The whole DNA sequence was chemically synthesized and cloned into the E. coli expression vector, pETDuet-1 at the NcoI and SacI sites by SGI Inc. His-tagged IPMSs were heterologously expressed in E. coli BL21 (DE3) cells and purified using Co-NTA chromatography. It is noted that none of the Sequence Listings included herein show the histidine-tag that is used, which in this case is […]
(§2) For expressing isopropylmalate synthases and its variants, competent cells of E. coli BL21(DE3) cells (acquired from EMD Biosciences) were transformed using standard procedures with the pETDuet expression vector containig their gene sequences. Cells harboring the expression vector were selected on LB agar plates containing 50 μg/mL of ampicillin. A starter culture was started by transferring a single colony of transformant into 50 mL of LB medium containing 100 μg/mL of ampicillin and incubated at 37° C. with shaking at 220 rpm overnight. On the next day, 7 mL of starter culture was inoculated into 800 mL of Terrific Broth (TB) and the culture was incubated at 37° C. until it reached an OD600 nm of 0.5. Isopropyl β-D-1-thiogalacto-pyranoside (IPTG) at a final concentration of 1 mM was added to induce the expression of the isopropylmalate synthase or its variant and the culture was transferred to a 15° C. incubator for 16 hours (h). At the end of 16 h, the culture was centrifuged at 8000 revolutions per minute (rpm) to pelletize the cells. The cell pellet was stored at −80° C. overnight before purification.
(§3) For isolation and purification of the enzyme, cell pellet taken from 400 mL of expression culture was suspended in B-PER reagent (Thermo Fisher Scientific, Inc., Rockford, Ill.) containing 1 μg/mL of DNAse (Thermo Fisher Scientific, Inc., Rockford, Ill.), 1 μg/mL of lysozyme (Thermo Fisher Scientific, Inc., Rockford, Ill.), 1 millimolar (mM) of dithiothreitol, and protease inhibitor cocktail (RPI Corp., Mount Prospect, Ill.). The suspension was rocked gently for 30 minutes (min) at room temperature and centrifuged at 15,000 times gravity (×g) for 20 min to pelletize cell debris. The supernatant was separated and incubated with 5 mL of Co-NTA resin (Thermo Fisher Scientific, Inc., Rockford, Ill.) that had been pre-equilibrated with an equilibration buffer (50 mM sodium phosphate, pH 8.0, containing 300 mM sodium chloride, 20 mM imidazole, 50 μL protease inhibitor cocktail, and 15% glycerol). Following an incubation period of 1 h at 4° C., the enzyme bound resin was washed with 5 volumes of equilibration buffer. Isopropylmalate synthase or its variants were eluted from the Co-NTA resin with equilibration buffer containing 200 mM imidazole. The eluted proteins were dialyzed against phosphate buffered saline and stored as a 20% glycerol solution at −20° C.
(§4) The evaluation of the LeuA variants was performed in two steps using the high-throughput enzyme assay described below. Initially, all the variants were tested for activity against a single high concentration of 2-KBut, 2-KHex, and 2-KOct. The spectrophotometric isopropylmalate synthase enzyme assay reported by Marcheschi et al (Marcheschi, R. J.; Li, H.; Zhang, K.; Noey, E. L.; Kim, S.; Chaubey, A.; Houk, K. N.; Liao, J. C. A synthetic recursive “+1” pathway for carbon chain elongation. ACS chemical biology 2012, 7, 689-697) was adapted into a high-throughput format in 96-well plates for the kinetic evaluation of the isopropylmalate synthase variants (shown in Table 1). […]

[10] = substrate: CC(=O)SCCNC(=O)CCNC(=O)[C@H](O)C(C)(C)COP(=O)(O)OP(=O)(O)OC[C@H]1O[C@@H](n2cnc3c(N)ncnc32)[C@H](O)[C@@H]1OP(=O)(O)O; test: as above; assay type: biochemical, E. coli; conditions: other: acetyl-CoA 0-10 mM, 2-ketooctanoate 2 mM, pH 7.5, 30° C.
Procedure: as §1, §2, §3, §4

[11] = 2-ketooctanoate 0-3.2 mM, acetyl-CoA 2 mM
[12] = acetyl-CoA 0-10 mM, 2-ketooctanoate 2 mM

Citrobacter freundii MGH 56 isopropylmalate synthase (Gene Accession No. KDF09799, SEQ ID NO: 1) variant 1409, H97A/S139G/N167G/P169A/G462D, sequence (A0A0D7LMP4 entry or part of it G462D/H97A/N167G/P169A/S139G): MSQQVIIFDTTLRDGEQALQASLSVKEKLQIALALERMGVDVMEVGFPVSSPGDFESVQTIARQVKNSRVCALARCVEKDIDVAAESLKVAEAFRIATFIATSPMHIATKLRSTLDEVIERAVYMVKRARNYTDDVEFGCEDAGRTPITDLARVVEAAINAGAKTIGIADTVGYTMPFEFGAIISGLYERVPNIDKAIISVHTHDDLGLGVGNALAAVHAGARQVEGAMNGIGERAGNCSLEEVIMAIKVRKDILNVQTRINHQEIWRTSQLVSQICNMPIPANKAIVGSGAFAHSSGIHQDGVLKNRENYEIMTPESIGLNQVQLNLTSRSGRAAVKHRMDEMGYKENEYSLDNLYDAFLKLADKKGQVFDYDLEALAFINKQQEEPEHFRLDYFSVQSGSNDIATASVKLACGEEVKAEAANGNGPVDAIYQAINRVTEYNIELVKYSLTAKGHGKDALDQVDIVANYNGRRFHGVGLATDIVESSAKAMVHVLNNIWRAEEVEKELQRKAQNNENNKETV

CCCCCCC(=O)C(=O)O [2-Ketooctanoic acid, 2-ketooctanoic acid]
kcat (2-ketooctanoic acid) [1, 11]: 12.3 ± 0.5 min⁻¹
kcat/KM (2-ketooctanoic acid) [1, 11]: 176 ± 18 min⁻¹ mM⁻¹
kcat (2-ketooctanoic acid) [2, 11]: 168 ± 3.9 min⁻¹
kcat/KM (2-ketooctanoic acid) [2, 11]: 1355 ± 59 min⁻¹ mM⁻¹
kcat (2-ketooctanoic acid) [3, 11]: 247 ± 5.4 min⁻¹
kcat/KM (2-ketooctanoic acid) [3, 11]: 1413 ± 59 min⁻¹ mM⁻¹
kcat (2-ketooctanoic acid) [4, 11]: 210 ± 3.5 min⁻¹
kcat/KM (2-ketooctanoic acid) [4, 11]: 1237 ± 59 min⁻¹ mM⁻¹
kcat (2-ketooctanoic acid) [5, 11]: 148 ± 5 min⁻¹
kcat/KM (2-ketooctanoic acid) [5, 11]: 1587 ± 118 min⁻¹ mM⁻¹
% more efficient than construct 614 in capturing 2-ketooctanoate (kcat/KM) ([6]; vs E. coli construct 614): 30-40%
fold more efficient than parent construct 1409 in capturing 2-ketooctanoate (kcat/KM) ([6]; vs parent 1409): 9 fold

CC(=O)SCCNC(=O)CCNC(=O)[C@H](O)C(C)(C)COP(=O)(O)OP(=O)(O)OC[C@H]1O[C@@H](n2cnc3c(N)ncnc32)[C@H](O)[C@@H]1OP(=O)(O)O [acetyl CoA, acetyl coenzyme A]
kcat (acetyl CoA) [1, 12]: 7.1 ± 1.2 min⁻¹
kcat (acetyl CoA) [7]: 24 ± 2.4 min⁻¹
kcat (acetyl CoA) [2, 12]: 141 ± 5 min⁻¹
kcat (acetyl CoA) [3, 12]: 230 ± 5 min⁻¹
kcat (acetyl CoA) [4, 12]: 206 ± 16 min⁻¹
kcat (acetyl CoA) [5, 12]: 312 ± 15 min⁻¹

Citrobacter freundii MGH 56 isopropylmalate synthase (Gene Accession No. KDF09799, SEQ ID NO: 1) variant 1409, H97A/S139G/N167G/P169A/G462D (Citrobacter freundii; G462D/H97A/N167G/P169A/S139G)
Km (CCCCCCC(=O)C(=O)O): 0.064 ± 0.009 mM
Km [8]: 0.45 ± 0.24 mM

Citrobacter freundii MGH 56 isopropylmalate synthase (Gene Accession No. KDF09799, SEQ ID NO: 1) variant 1467, G181A/A182G/G210A/A214S/H97A/S139G/N167G/P169A/G462D (Citrobacter freundii; A182G/A214S/G181A/G210A/G462D/H97A/N167G/P169A/S139G)
Km (CCCCCCC(=O)C(=O)O): 0.092 ± 0.009 mM

Enterobacter cloacae isopropylmalate synthase (Gene Accession No. WP_014830637, SEQ ID NO: 2) variant 1414, H97A/S139G/N167G/P169A/G462D (Enterobacter cloacae subsp. cloacae ATCC 13047; G462D/H97A/N167G/P169A/S139G)
Km (CCCCCCC(=O)C(=O)O): 0.124 ± 0.008 mM

Enterobacter cloacae isopropylmalate synthase (Gene Accession No. WP_014830637, SEQ ID NO: 2) variant 1457, M255L/R260A/N264Q/H97A/S139G/N167G/P169A/G462D (Enterobacter cloacae subsp. cloacae ATCC 13047; G462D/H97A/M255L/N167G/N264Q/P169A/R260A/S139G)
Km (CCCCCCC(=O)C(=O)O): 0.176 ± 0.009 mM

Enterobacter cloacae isopropylmalate synthase (Gene Accession No. WP_014830637, SEQ ID NO: 2) variant 1460, D348E/D350E/M353L/Q355N/H97A/S139G/N167G/P169A/G462D (Enterobacter cloacae subsp. cloacae ATCC 13047; D348E/D350E/G462D/H97A/M353L/N167G/P169A/Q355N/S139G)
Km (CCCCCCC(=O)C(=O)O): 0.170 ± 0.007 mM

B1: E. coli isopropylmalate synthase (LeuA, Gene Accession No. EG11226) variant 614, H97A/S139G/N167G/P169A/G462D (Escherichia coli K-12; … (protein)
chain: MSQQVIIFDTTLRDGEQALQASLSVKEKLQIALALERMGVDVMEVGFPVSSPGDFESVQTIARQVKNSRVCALARCVEKDIDVAAESLKVAEAFRIATFIATSPMHIATKLRSTLDEVIERAIYMVKRARNYTDDVEFGCEDAGRTPIADLARVVEAAINAGATTIGIADTVGYTMPFEFAGIISGLYERVPNIDKAIISVHTHDDLGLAVGNSLAAVHAGARQVEGAMNGIGERAGNCSLEEVIMAIKVRKDILNVHTAINHQEIWRTSQLVSQICNMPIPANKAIVGSGAFAHSSGIHQDGVLKNRENYEIMTPESIGLNQIQLNLTSRSGRAAVKHRMDEMGYKESEYNLDNLYDAFLKLADKKGQVFDYDLEALAFIGKQQEEPEHFRLDYFSVQSGSNDIATAAVKLACGEEVKAEAANGNGPVDAVYQAINRITEYNVELVKYSLTAKGHGKDALDQVDIVANYNGRRFHGVGLATDIVESSAKAMVHVLNNIWRAAEVEKELQRKAQHNENNKETV
notes: His-tag (13 additional amino acids, six histidines) (N); made in house; host or cells: E. coli BL21 (DE3)
Km [9]: 0.25 ± 0.035 mM
kcat [9]: 4.53 ± 0.3 s⁻¹
kcat/Km [9]: 18600 ± 1950 M⁻¹ s⁻¹
Km [10]: 0.83 ± 0.05 mM
kcat [10]: 4.4 ± 0.133 s⁻¹
kcat/Km [10]: 5370 ± 383 M⁻¹ s⁻¹
